The data set can be described thus: Miscibility of unprocessed prednisolone acetate with water. Format: physicochemical. Conditions: floats on the surface of water. The protocol: API Particle size reduction. The API, prednisolone acetate, of the present invention is destined for inclusion in ophthalmic formulation and characterized by a target PSD of: D10≤0.15 μM, D50≤0.75 μM, D90≤2.5 μM. […] Addition of surfactant (e.g. polysorbate) to aqueous solution was required to form slurries of prednisolone acetate suitable for use as vehicles in particle size reduction experiments that employed bead milling and high-pressure homogenization.
API Particle size reduction. The API, prednisolone acetate, of the present invention is destined for inclusion in ophthalmic formulation and in some embodiments characterized by a target PSD of: D10≤1.0 μM, D50≤2.2 μM, D90≤4.5 μM. […] Addition of surfactant (e.g. polysorbate) to aqueous solution was required to form slurries of prednisolone acetate suitable for use as vehicles in particle size reduction experiments that high-pressure homogenization.

Among the data in patent publication US20250268824A1, “METHODS FOR MAKING REDUCED PARTICLE SIZE COMPOUNDS” (TaP Pharmaceuticals AG, priority 2024, published 2025) are miscibility with water values, retold here.

For the compound `CC(=O)OCC(=O)[C@@]1(O)CC[C@H]2[C@@H]3CCC4=CC(=O)C=C[C@]4(C)[C@H]3[C@@H](O)C[C@@]21C` [prednisolone acetate], the miscibility with water entry is given as “immiscible with water”.
